The record followed here is patent US5843911A, “Hyaluronidase inhibitor containing god-type ellagitannin as active ingredient” (Suntory Limited, priority 1995, dated 1998).

The experiment has as its target T1, bovine testis-derived hyaluronidase (Type IV of Sigma) (Bos taurus, UniProt Q2YDK3).
T1 construct: purchased Sigma Type IV; host or cells: bovine testis
T1 sequence (Q2YDK3 36-553): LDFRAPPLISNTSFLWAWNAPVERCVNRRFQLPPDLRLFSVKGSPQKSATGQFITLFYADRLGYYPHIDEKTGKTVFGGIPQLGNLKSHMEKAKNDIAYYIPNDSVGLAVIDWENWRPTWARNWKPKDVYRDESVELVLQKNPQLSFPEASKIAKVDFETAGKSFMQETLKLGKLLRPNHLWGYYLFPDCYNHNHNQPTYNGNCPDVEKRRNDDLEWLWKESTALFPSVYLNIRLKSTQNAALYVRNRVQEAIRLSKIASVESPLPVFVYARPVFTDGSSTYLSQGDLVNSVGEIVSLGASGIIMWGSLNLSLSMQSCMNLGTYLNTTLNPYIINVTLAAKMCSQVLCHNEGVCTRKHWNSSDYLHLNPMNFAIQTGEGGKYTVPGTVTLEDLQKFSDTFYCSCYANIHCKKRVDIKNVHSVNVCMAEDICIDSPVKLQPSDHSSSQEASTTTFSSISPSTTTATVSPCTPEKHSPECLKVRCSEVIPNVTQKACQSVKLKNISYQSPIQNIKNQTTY
In words: Assay for the hyaluronidase inhibiting activity (inhibition of compound 48/80 activation of inactivated enzyme, colorimetric A585). Type of experiment: biochemical. To be noted: 0.1M acetate buffer pH 4.0, 37° C., enzyme activated with compound 48/80, sodium hyaluronate substrate.

As a reminder, the IC50 is the concentration that inhibits the measured activity by half.

Procedure: Stated more specifically, a suitable amount of a test sample was dissolved in 100 μl of a 0.1M acetate buffer solution (pH 4.0) and the solution was pipetted into a test tube. Following the addition of 0.10 mg (100 NF units) of the enzyme dissolved in 50 μl of the same buffer solution, the mixture was incubated at 37° C. for 20 min. […] Thereafter, 200 μg of sodium hyaluronate derived from a microorganism dissolved in 250 μl of the same buffer solution was added and the mixture was incubated at 37° C. for 40 min. Finally, 100 μl of 0.4N NaOH was added and, after cooling with ice, 100 μl of a borate buffer solution (pH 9.10) was added and the mixture was boiled for 3 min; after cooling with ice, 3 ml of a p-dimethylaminobenzaldehyde solution was added and the mixture was incubated for 20 min at 37° C. before [MUT] measurement was conducted. In place of the sample solution, 0.1M acetate buffer solution (pH 4.0) was used to prepare a control. […] The hyaluronidase inhibiting activity of the sample solution was expressed by percent inhibition as determined from the following equation: [formula] where A: [MUT] of the control solution B: [MUT] of the blank for the control solution C: [MUT] of the sample solution D: [MUT] of the blank for the sample solution.

On to `O=C(O)c1cc(=O)c2c(OCC(O)COc3cccc4oc(C(=O)O)cc(=O)c34)cccc2o1` [Sodium cromoglycate], for which the concentration for half-maximal inhibition (IC50) is 299 µM.
